The record followed here is PubChem BioAssay AID1919006 (Molecular Pharmacology Branch, DTP, NCI, 2023).

This experiment relates to 885512-296-R-J2-PDC complex spheroid growth, % test/control. Put plainly: Anticancer human tumor 885512-296-R-J2-PDC patient-derived breast carcinoma cell line growth inhibition [AhR]. Particulars: for viability, T/C: stronger effect = lower value. The procedure, abridged:
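Agents were dosed in half-log steps down from roughly clinical Cmax, or from 10 microM where Cmax was unknown, alone and with AhR antagonists. Read-out: percent test/control growth of tumor spheroids containing HUVEC and MSC stromal cells.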

Setting [1] is: curve of first compound, second compound 0.1 µM.
Where [2] appears, read: curve of first compound, second compound 0.316 µM.
Setting [3] is: curve of first compound, second compound 1 µM.
Where [4] appears, read: curve of first compound, second compound 3.16 µM.
[5] abbreviates: curve of first compound, second compound 10 µM.
The mark [6] stands for this setting: second compound 0.1 µM, first compound 0.0316 µM.
Where [7] appears, read: second compound 0.1 µM, first compound 0.1 µM.
Where [8] appears, read: second compound 0.1 µM, first compound 0.316 µM.
The mark [9] stands for this setting: second compound 0.1 µM, first compound 1 µM.
[10] abbreviates: second compound 0.1 µM, first compound 3.16 µM.
The mark [11] stands for this setting: second compound 0.1 µM, first compound 10 µM.
Setting [12] is: second compound 0.316 µM, first compound 0.0316 µM.
Setting [13] is: second compound 0.316 µM, first compound 0.1 µM.
The mark [14] stands for this setting: second compound 0.316 µM, first compound 0.316 µM.
Where [15] appears, read: second compound 0.316 µM, first compound 1 µM.
Where [16] appears, read: second compound 0.316 µM, first compound 3.16 µM.
Setting [17] is: second compound 0.316 µM, first compound 10 µM.
The mark [18] stands for this setting: second compound 1 µM, first compound 0.0316 µM.
[19] abbreviates: second compound 1 µM, first compound 0.1 µM.
[20] abbreviates: second compound 1 µM, first compound 0.316 µM.
Where [21] appears, read: second compound 1 µM, first compound 1 µM.
Setting [22] is: second compound 1 µM, first compound 3.16 µM.
[23] abbreviates: second compound 1 µM, first compound 10 µM.
Setting [24] is: second compound 3.16 µM, first compound 0.0316 µM.
Setting [25] is: second compound 3.16 µM, first compound 0.1 µM.
The mark [26] stands for this setting: second compound 3.16 µM, first compound 0.316 µM.
The mark [27] stands for this setting: second compound 3.16 µM, first compound 1 µM.
[28] abbreviates: second compound 3.16 µM, first compound 3.16 µM.
[29] abbreviates: second compound 3.16 µM, first compound 10 µM.
[30] abbreviates: second compound 10 µM, first compound 0.0316 µM.
The mark [31] stands for this setting: second compound 10 µM, first compound 0.1 µM.
Setting [32] is: second compound 10 µM, first compound 0.316 µM.
[33] abbreviates: second compound 10 µM, first compound 1 µM.
Where [34] appears, read: second compound 10 µM, first compound 3.16 µM.
Setting [35] is: second compound 10 µM, first compound 10 µM.

“And” between values parts separate entries of the source, which are not always exact repeats. Equal values may be shown once. Where only a bound is given, the exact number is not on record here.
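Note: spheroids exposed to compounds for seven days.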

The viability, T/C is the result in the treated group divided by that in the control group, in per cent. By IC50 is commonly meant the concentration that inhibits the measured activity by half. With `COc1cccc2c1C(=O)c1c(O)c3c(c(O)c1C2=O)CC(O)(C(=O)CO)CC3OC1CC(N)C(O)C(C)O1` (stereo unspecified), the viability, T/C was 22.1% and 16.4% and 24.6% (compound 0.0316 µM); 20.5% and 11.7% and 14.2% (compound 0.1 µM); 8.97% and 3.94% and 5.3% (compound 0.316 µM); 0.67% and 0.49% and 0.27% (compound 1 µM); 1.99% and 1.41% and 0.92% (compound 3.16 µM); 1.58% and 1.1% and 0.8% (compound 10 µM). For the setting “curve of compound”, the 50% inhibitory concentration (IC50) is below 0.0316 µM.

In the case of `O=C(c1cc(Cc2n[nH]c(=O)c3ccccc23)ccc1F)N1CCN(C(=O)C2CC2)CC1` + CC(CO)NC(=O)c1cc(-c2ccc(Cl)cc2)nn(-c2cnn(C)c2)c1=O, the half-inhibitory concentration (IC50) under setting [1] stood at 6.93 µM; the half-inhibitory concentration (IC50) under setting [2] stood at 6.97 µM; the concentration for half-maximal inhibition (IC50) under setting [3] was determined as 7.14 µM; the concentration for half-maximal inhibition (IC50) under setting [4] came out at 7.14 µM; the IC50 under setting [5] turned out to be 4.62 µM. The viability, T/C reads like this: under setting [6], 98.1%; under setting [7], 106%; under setting [8], 110%; under setting [9], 137%; under setting [10], 98.1%; under setting [11], 27.5%. Moreover, the viability, T/C is, setting by setting: under setting [12], 102%; under setting [13], 89.7%; under setting [14], 112%; under setting [15], 121%; under setting [16], 95.5%; under setting [17], 29.2%. Further, the viability, T/C under setting [18] was 96.4%; the viability, T/C under setting [19] is 102%; the viability, T/C under setting [20] is 105%; the viability, T/C under setting [21] is 118%; the viability, T/C under setting [22] is 104%; the viability, T/C under setting [23] was 27.8%. The viability, T/C under setting [24] is 94.7%; the viability, T/C under setting [25] is 98.4%; the viability, T/C under setting [26] was 111%; the viability, T/C under setting [27] is 113%; the viability, T/C under setting [28] is 91.9%; the viability, T/C under setting [29] was 32.5%. Besides, the viability, T/C under setting [30] is 98.1%; the viability, T/C under setting [31] is 96%; the viability, T/C under setting [32] was 109%; the viability, T/C under setting [33] is 93.6%; the viability, T/C under setting [34] was 62.1%; the viability, T/C under setting [35] is 25.8%.

On to `O=C(C=Cn1cnc(-c2cc(C(F)(F)F)cc(C(F)(F)F)c2)n1)NNc1cnccn1` + Cc1cncc(-c2nc(NCCc3c[nH]c4ccccc34)c3ncn(C(C)C)c3n2)c1, for which the IC50 was 0.0606 µM under setting [1]; 0.0692 µM under setting [2]; 0.0658 µM under setting [3]; 0.0425 µM under setting [4]; below 0.00949 µM under setting [5]. In addition, the viability, T/C by setting is: (second compound 0.1 µM, first compound 0.00949 µM) 93.3%; (second compound 0.1 µM, first compound 0.03 µM) 99.9%; (second compound 0.1 µM, first compound 0.0949 µM) 20.3%; (second compound 0.1 µM, first compound 0.3 µM) 4.2%; (second compound 0.1 µM, first compound 0.949 µM) 2.2%; (second compound 0.1 µM, first compound 3 µM) 1.61%. For the same compound, the viability, T/C reads like this: (second compound 0.316 µM, first compound 0.00949 µM) 97.4%; (second compound 0.316 µM, first compound 0.03 µM) 93%; (second compound 0.316 µM, first compound 0.0949 µM) 33.8%; (second compound 0.316 µM, first compound 0.3 µM) 5.36%; (second compound 0.316 µM, first compound 0.949 µM) 2.35%; (second compound 0.316 µM, first compound 3 µM) 1.45%. The viability, T/C reads like this: (second compound 1 µM, first compound 0.00949 µM) 98.2%; (second compound 1 µM, first compound 0.03 µM) 89.4%; (second compound 1 µM, first compound 0.0949 µM) 31.6%; (second compound 1 µM, first compound 0.3 µM) 4.92%; (second compound 1 µM, first compound 0.949 µM) 2.78%; (second compound 1 µM, first compound 3 µM) 1.53%. Moreover, the viability, T/C (second compound 3.16 µM, first compound 0.00949 µM) is 64.6%; the viability, T/C (second compound 3.16 µM, first compound 0.03 µM) is 66.2%; the viability, T/C (second compound 3.16 µM, first compound 0.0949 µM) is 14.8%; the viability, T/C (second compound 3.16 µM, first compound 0.3 µM) is 5.25%; the viability, T/C (second compound 3.16 µM, first compound 0.949 µM) was 2.77%; the viability, T/C (second compound 3.16 µM, first compound 3 µM) was 1.58%. Further, the viability, T/C was 19.2% (second compound 10 µM, first compound 0.00949 µM); 16.8% (second compound 10 µM, first compound 0.03 µM); 8.05% (second compound 10 µM, first compound 0.0949 µM); 4.48% (second compound 10 µM, first compound 0.3 µM); 3.45% (second compound 10 µM, first compound 0.949 µM); 2.01% (second compound 10 µM, first compound 3 µM).

Take `COc1ccc([C@@H](O)c2cc(-c3ncnc4cc(N5CCOCC5)ccc34)c(F)cc2Cl)nn1` + Cc1ccccc1N=Nc1ccc(NC(=O)c2ccnn2C)c(C)c1: the concentration for half-maximal inhibition (IC50) under setting [1] was 8.29 µM; the IC50 under setting [2] worked out at 7.98 µM; the IC50 under setting [3] worked out at 6.55 µM; the IC50 under setting [4] is 5.96 µM; the IC50 under setting [5] was below 0.0316 µM. The viability, T/C by setting is: under setting [6], 107%; under setting [7], 106%; under setting [8], 91%; under setting [9], 80%; under setting [10], 74%; under setting [11], 44.3%. The viability, T/C was 92.9% under setting [12]; 117% under setting [13]; 110% under setting [14]; 95.7% under setting [15]; 71.4% under setting [16]; 44.8% under setting [17]. In addition, the viability, T/C reads like this: under setting [18], 112%; under setting [19], 96%; under setting [20], 100%; under setting [21], 78.9%; under setting [22], 60%; under setting [23], 44.2%. The viability, T/C by setting is: under setting [24], 85.4%; under setting [25], 92.9%; under setting [26], 83.2%; under setting [27], 69%; under setting [28], 66.4%; under setting [29], 38.9%. In addition, the viability, T/C runs as follows: under setting [30], 46.2%; under setting [31], 49.9%; under setting [32], 47%; under setting [33], 48.3%; under setting [34], 38.9%; under setting [35], 26.2%.

Turning to `NS(=O)(=O)OCC1CC(n2ccc3c(NC4CCc5ccccc54)ncnc32)CC1O` (stereo unspecified), the viability, T/C was 87% and 90.8% and 96.4% (compound 0.0316 µM); 45.5% and 46.1% and 46.9% (compound 0.1 µM); 13.6% and 12.9% and 16% (compound 0.316 µM); 6.2% and 6.25% and 7.3% (compound 1 µM); 5.6% and 5% and 5.76% (compound 3.16 µM); 4.67% and 3.65% and 5.16% (compound 10 µM). Further, the IC50 (curve of compound) was 0.0884 µM and 0.0903 µM and 0.093 µM.

As to `COc1ccc([C@@H](O)c2cc(-c3ncnc4cc(N5CCOCC5)ccc34)c(F)cc2Cl)nn1`, the viability, T/C by setting is: (compound 0.0316 µM) 94.6% and 87.4% and 102%; (compound 0.1 µM) 106% and 92.4% and 99.4%; (compound 0.316 µM) 89.7% and 96.4% and 93.8%; (compound 1 µM) 92.1% and 84% and 75.6%; (compound 3.16 µM) 72.1% and 75.7% and 68.1%; (compound 10 µM) 46% and 46.8% and 45.7%. The IC50 (curve of compound) is 8.49 µM and 8.77 µM and 8.08 µM.
